Measured values: US20140073634A1 (Institute For Applied Cancer Science/The University of …, priority 2012, published 2014)

system: 293T-HRE-GFP-luc cells; experiment: Cell-based reporter assay for IC50 determinations (HRE-luciferase, hypoxia); conditions: 6 h, 6 hrs hypoxia (1% O2), luminescence
Outline: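 293T-HRE-GFP-luc cells were pre-incubated with serially diluted compounds for 30 min under normoxia, then held 6 hrs in hypoxia (1% O2, 37° C). HRE-driven luciferase read by Steadylite Plus luminescence; IC50 from four-parameter logistic fit.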

Row | SMILES | IC50 [nM]
1 | COCCOc1cccc(Cn2cc(-c3noc(-c4cnc(OCCOC)nc4)n3)ccc2=O)c1 [Example 239, 1-{[3-(2-methoxyethoxy)phenyl]methyl}-5-{5-[2-(2-methoxyethoxy)pyrimidin-5-yl]-1,2,4-oxadiazol-3-yl}-1,2-dihydropyridin-2-one] | 100 to 1000
2 | COCCOc1cccc(Cn2cc(-c3noc(-c4cnc(OCC(F)(F)F)nc4)n3)ccc2=O)c1 [Example 240, 1-{[3-(2-methoxyethoxy)phenyl]methyl}-5-{5-[2-(2,2,2-trifluoroethoxy)pyrimidin-5-yl]-1,2,4-oxadiazol-3-yl}-1,2-dihydropyridin-2-one] | < 100
3 | COCCOc1cccc(Cn2cc(-c3noc(-c4cnc(OC(C)C)nc4)n3)ccc2=O)c1 [Example 241, 1-{[3-(2-methoxyethoxy)phenyl]methyl}-5-{5-[2-(propan-2-yloxy)pyrimidin-5-yl]-1,2,4-oxadiazol-3-yl}-1,2-dihydropyridin-2-one] | < 100
4 | COCCOc1cccc(Cn2cc(-c3noc(-c4cnc(N5CCOCC5)nc4)n3)ccc2=O)c1 [Example 242, 1-{[3-(2-methoxyethoxy)phenyl]methyl}-5-{5-[2-(morpholin-4-yl)pyrimidin-5-yl]-1,2,4-oxadiazol-3-yl}-1,2-dihydropyridin-2-one] | < 100
5 | COCCOc1cccc(Cn2cc(-c3noc(-c4cnc(N5CCC(C)(C)CC5)nc4)n3)ccc2=O)c1 [Example 243, 5-{5-[2-(4,4-dimethylpiperidin-1-yl)pyrimidin-5-yl]-1,2,4-oxadiazol-3-yl}-1-{[3-(2-methoxyethoxy)phenyl]methyl}-1,2-dihydropyridin-2-one] | < 100
6 | COCCOc1cccc(Cn2cc(-c3noc(-c4cnc(C5CC5)nc4)n3)ccc2=O)c1 [Example 244, 5-[5-(2-cyclopropylpyrimidin-5-yl)-1,2,4-oxadiazol-3-yl]-1-{[3-(2-methoxyethoxy)phenyl]methyl} 1,2-dihydropyridin-2-one] | < 100
7 | CNc1ncc(-c2nc(-c3ccc(=O)n(Cc4cccc(OCCOC)c4)c3)no2)cn1 [Example 245, 1-{[3-(2-methoxyethoxy)phenyl]methyl}-5-{5-[2-(methylamino)pyrimidin-5-yl]-1,2,4-oxadiazol-3-yl}-1,2-dihydropyridin-2-one] | 100 to 1000
8 | COCCOc1cccc(Cn2cc(-c3noc(-c4cnc(NCC(C)C)nc4)n3)ccc2=O)c1 [Example 246] | < 100
9 | COCCOc1cccc(Cn2cc(-c3noc(-c4cnc(NCC(C)(C)C)nc4)n3)ccc2=O)c1 [Example 247, 5-(5-{2-[(2,2-dimethylpropyl)amino]pyrimidin-5-yl}-1,2,4-oxadiazol-3-yl)-1-{[3-(2-methoxyethoxy)phenyl]methyl}-1,2-dihydropyridin-2-one] | < 100
10 | COCCOc1cccc(Cn2cc(-c3noc(-c4cnc(NC(C)C)nc4)n3)ccc2=O)c1 [Example 248, 1-{[3-(2-methoxyethoxy)phenyl]methyl}-5-(5-{2-[(propan-2-yl)amino]pyrimidin-5-yl}-1,2,4-oxadiazol-3-yl)-1,2-dihydropyridin-2-one] | < 100
11 | COCCOc1cccc(Cn2cc(-c3noc(-c4cnc(NC(C)(C)C)nc4)n3)ccc2=O)c1 [Example 249, 5-{5-[2-(tert-butylamino)pyrimidin-5-yl]-1,2,4-oxadiazol-3-yl}-1-{[3-(2-methoxyethoxy)phenyl]methyl}-1,2-dihydropyridin-2-one] | < 100
12 | COCCOc1cccc(Cn2cc(-c3noc(-c4cnc(N5CCS(=O)(=O)CC5)nc4)n3)ccc2=O)c1 [Example 250, 5-(5-(2-(1,1-dioxidothiomorpholino)pyrimidin-5-yl)-1,2,4-oxadiazol-3-yl)-1-(3-(2-methoxyethoxy)benzyl)pyridin-2(1H)-one] | 100 to 1000
13 | O=c1ccc(-c2cc(-c3ccc(OC(F)(F)F)cc3)no2)cn1Cc1cccc(N2CCS(=O)(=O)CC2)c1 [Example 251, 1-(3-(1,1-dioxidothiomorpholino)benzyl)-5-(3-(4-(trifluoromethoxy)phenyl)isoxazol-5-yl)pyridin-2(1H)-one] | < 100
14 | O=c1ccc(-c2cc(-c3ccc(OC(F)(F)F)cc3)no2)cn1Cc1cccc(N2CCCS2(=O)=O)c1 [Example 252, 1-(3-(1,1-dioxidoisothiazolidin-2-yl)benzyl)-5-(3-(4-(trifluoromethoxy)phenyl)isoxazol-5-yl)pyridin-2(1H)-one] | < 100
15 | O=c1ccc(-c2cc(-c3ccc(OC(F)(F)F)cc3)no2)cn1Cc1cccc(NC2CCS(=O)(=O)CC2)c1 [Example 253, 1-(3-((1,1-dioxidotetrahydro-2H-thiopyran-4-yl)amino)benzyl)-5-(3-(4-(trifluoromethoxy)phenyl)isoxazol-5-yl)pyridin-2(1H)-one] | < 100
16 | O=c1ccc(-c2cc(-c3ccc(OC(F)(F)F)cc3)no2)cn1Cc1cccc(NC2CCCS(=O)(=O)C2)c1 (centres unmarked) [Example 254, 1-(3-((1,1-dioxidotetrahydro-2H-thiopyran-3-yl)amino)benzyl)-5-(3-(4-(trifluoromethoxy)phenyl)isoxazol-5-yl)pyridin-2(1H)-one] | < 100
17 | CC(C)c1ccc(-c2cc(-c3ccc(=O)n(Cc4cccc(N5CCC(S(C)(=O)=O)CC5)c4)c3)no2)cc1 [Example 255, 5-(5-(4-isopropylphenyl)isoxazol-3-yl)-1-(3-(4-(methylsulfonyl)piperidin-1-yl)benzyl)pyridin-2(1H)-one] | < 100
18 | COCCOc1cccc(Cn2cc(-c3nnc(-c4ccc(OC(F)F)cc4)o3)ccc2=O)c1 [Example 257, 5-{5-[4-(difluoromethoxy)phenyl]-1,3,4-oxadiazol-2-yl}-1-{[3-(2-methoxyethoxy)phenyl]methyl}-1,2-dihydropyridin-2-one] | 100 to 1000
19 | COCCOc1cccc(Cn2cc(-c3nnc(-c4ccc(S(=O)(=O)C(F)(F)F)cc4)o3)ccc2=O)c1 [Example 258, 1-{[3-(2-methoxyethoxy)phenyl]methyl}-5-[5-(4-trifluoromethanesulfonylphenyl)-1,3,4-oxadiazol-2-yl]-1,2-dihydropyridin-2-one] | 100 to 1000
20 | CS(=O)(=O)CCCOc1cccc(Cn2cc(-c3nnc(-c4ccc(S(=O)(=O)C(F)(F)F)cc4)o3)ccc2=O)c1 [Example 259, 1-{[3-(3-methanesulfonylpropoxy)phenyl]methyl}-5-[5-(4-trifluoromethanesulfonylphenyl)-1,3,4-oxadiazol-2-yl]-1,2-dihydropyridin-2-one] | < 100
21 | CC(C)(O)c1cccc(Cn2cc(-c3nnc(-c4ccc(S(=O)(=O)C(F)(F)F)cc4)o3)ccc2=O)c1 [Example 260, 1-{[3-(2-hydroxypropan-2-yl)phenyl]methyl}-5-[5-(4-trifluoromethanesulfonylphenyl)-1,3,4-oxadiazol-2-yl]-1,2-dihydropyridin-2-one] | 100 to 1000
22 | CC(C)(O)c1cccc(Cn2cc(-c3nnc(-c4ccc(OC(F)F)cc4)o3)ccc2=O)c1 [Example 261, 5-{5-[4-(difluoromethoxy)phenyl]-1,3,4-oxadiazol-2-yl}-1-{[3-(2-hydroxypropan-2-yl)phenyl]methyl}-1,2-dihydropyridin-2-one] | 100 to 1000
23 | CS(=O)(=O)CCCOc1cccc(Cn2cc(-c3nnc(-c4ccc(OC(F)F)cc4)o3)ccc2=O)c1 [Example 262, 5-{5-[4-(difluoromethoxy)phenyl]-1,3,4-oxadiazol-2-yl}-1-{[3-(3-methanesulfonylpropoxy)phenyl]methyl}-1,2-dihydropyridin-2-one] | < 100
